Test results as given in patent US20250316361A1, “SYSTEMS AND METHODS FOR ESTIMATING, FROM FOOD FREQUENCY QUESTIONNAIRE BASED NUTRIENTS INTAKE DATA, THE RELATIVE AMOUNTS OF FAECALIBACTERIUM PRAUSNITZII (FPRAU) IN THE GUT MICROBIOME ECOSYSTEM AND ASSOCIATED RECOMMENDATIONS TO IMPROVE FAECALIBACTERIUM PRAUSNITZII” (SOCIETE DES PRODUITS NESTLE S.A., priority 2021, published 2025).

Assays:
[1] = system: Faecalibacterium prausnitzii (F. prau); test: in vitro stool fermentation, quantitative PCR specifically targeting F. prau; format: cell-based; settings: stool inoculum in minimal media, anaerobic, 37 degrees Celsius
Procedure: (§1) Stool samples were collected from a healthy adult donor under human study protocol. Upon the reception of the stool samples, small aliquots were prepared with storage buffer (PBS and 10% glycerol) and were stored at −80 degrees Celsius before use. For each experiment, 250 μL of stool aliquot was inoculated in a 10 mL Hungate tube filled with a minimal bacteria culture media under a strict anaerobic condition (Oxygen <3 ppm) inside of an anaerobic chamber. Different nutrients or nutrient combinations, shown in Table 1, were added to the culture media at time 0 and the tubes were incubated at 37 degrees Celsius for 24 or 48 hours. The growth of Faecalibacterium prausnitzii (F. prau) was examined by two methods: quantitative PCR specifically targeting F. prau and 16S microbial rRNA gene sequencing.
First, we examined the absolute quantity of F. prau in the community after 24 or 48 hours (FIGS. 6A and 6B).

[2] = system: Faecalibacterium ASVs (ASV6); test: in vitro stool fermentation, 16S microbial rRNA gene sequencing of Faecalibacterium ASVs; format: cell-based, Faecalibacterium prausnitzii
Procedure: as §1
F. prau is heterogenic and genetically diverse. Thus, in this next experiment, we examined if nutrient or nutrient combinations favor specific F. prau to grow in a mixed community.

inulin
absolute quantity of F. prau in the community versus control ([1]; 24 hours, FIG. 6A): at least twice as much as control | absolute quantity of F. prau in the community ([1]; 48 hours, FIG. 6B): able to maintain a high amount of F. prau | response of Faecalibacterium ASV1, 6, 9, 12 and 13 ([2]; 14 genetically different Faecalibacterium found, time not stated): responded positively | response of F. prau ASV6 (figure legend) ([2]; samples collected after 24 hours and after 48 hours, FIG. 7): responded
